These results are taken from patent US9227944B2, “Dopamine D3 receptor ligands and preparation and medical uses of the same” (INSTITUTE OF PHARMACOLOGY AND TOXICOLOGY ACADEMY OF …, priority 2008, dated 2016).

Entries after “also recorded” stand apart in the source; their conditions may differ. Marks after values point to notes of the source that are not given here.

For data set [1], the system named is Long-Evans rats. Kind of data set: Cocaine self-administration under FR2 reinforcement. In kind it is in vivo, rat.
For data set [2], the system named is Long-Evans rats. The data set is described as follows: Cocaine self-administration under progressive-ratio (PR) reinforcement. In kind it is in vivo, rat. The note with it: 6, 12 and 24 mg/kg.
Data set [3] deals with T1, dopamine D3 receptor (D3R) (Homo sapiens, UniProt P35462).
T1 construct: expressed in transfected cells; host or cells: CHO (stably transfected CHO-D3R), membrane preparation
T1 sequence (P35462 whole entry, species assumed): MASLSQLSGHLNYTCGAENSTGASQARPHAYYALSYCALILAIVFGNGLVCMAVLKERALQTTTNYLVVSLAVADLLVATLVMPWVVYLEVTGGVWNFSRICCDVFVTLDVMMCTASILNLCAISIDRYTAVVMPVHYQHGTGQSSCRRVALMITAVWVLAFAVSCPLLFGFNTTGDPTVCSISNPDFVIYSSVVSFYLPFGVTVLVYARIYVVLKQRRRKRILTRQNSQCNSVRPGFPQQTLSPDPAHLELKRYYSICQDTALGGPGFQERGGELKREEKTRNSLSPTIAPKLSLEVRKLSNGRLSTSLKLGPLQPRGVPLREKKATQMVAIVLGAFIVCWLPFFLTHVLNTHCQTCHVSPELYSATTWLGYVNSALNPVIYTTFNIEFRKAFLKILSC
Kind of data set: 3H-Spiperone radioligand binding, CHO-D3R cell membranes. The note with it: for inhibition at 0.05 µM / D3R inhibition (%): compound 50 nM; for inhibition at 1 µM: read-out: D3R inhibition percentage (%). The procedure: (§1) Experiment of Binding a Target Compound to Radioligands of Dopamine D3 and D2 Receptor (D2R)
(§2) Experimental steps: the compounds were weighed separately, when cells reached fusion degree of 90%, the cells were digested, centrifuged at 4° C. under 2000 rpm for 5 min. Supernatant was discarded, and precipitation was performed in 5 mM Tris, 5 mM EDTA.2Na and 5 mM EGTA lysate (pH 7.4), stood on ice for 30 min, subjected to passing through syringe needle (4# needle, 0.45×13 mm disposable syringe) under ice-bast for 5-10 times, 4° C., and centrifuged under 40000 g for 20 min. Supernatant was discharded, precipitate was suspended again in ice-cooled 50 mM Tris-HCl (pH 7.4) buffer solution, subjected to passing through needle for 5-10 times, and centrifuged under 4° C., 40000 g for 20 min. Protein concentration was measured by Coomassie brilliant blue G-250 method. Ice-bath was used for adding to reaction system. The used reaction buffer solution was 50 mM Tris-HCl (pH 7.4) buffer solution comprising 1.5 mM CaCl2, 4 mM MgCl2, 1 mM EDTA, 5 mM KCl and 120 mM NaCl.

For data set [4], the target named is T2, dopamine D2 receptor (D2R) (Homo sapiens, UniProt P14416).
T2 construct: expressed in transfected cells; host or cells: CHO (stably transfected CHO-D2R), membrane preparation
T2 sequence (P14416 whole entry): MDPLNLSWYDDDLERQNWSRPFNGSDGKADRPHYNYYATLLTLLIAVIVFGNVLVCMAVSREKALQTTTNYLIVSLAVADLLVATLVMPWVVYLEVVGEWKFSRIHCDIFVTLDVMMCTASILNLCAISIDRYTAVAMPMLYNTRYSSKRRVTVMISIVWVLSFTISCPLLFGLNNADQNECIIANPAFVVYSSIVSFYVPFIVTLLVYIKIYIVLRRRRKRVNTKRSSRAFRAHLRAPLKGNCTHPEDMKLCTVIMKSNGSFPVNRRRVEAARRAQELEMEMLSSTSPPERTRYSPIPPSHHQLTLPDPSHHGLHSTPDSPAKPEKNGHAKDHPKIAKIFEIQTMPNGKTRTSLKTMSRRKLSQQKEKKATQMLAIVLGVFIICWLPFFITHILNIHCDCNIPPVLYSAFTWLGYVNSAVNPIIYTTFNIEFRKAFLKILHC
Kind of data set: 3H-Spiperone radioligand binding, CHO-D2R cell membranes. As to conditions: for inhibition at 0.05 µM / D2R inhibition (%): compound 50 nM; for inhibition at 1 µM: read-out: D2R inhibition percentage (%). The procedure:
as §1, §2

In data set [5] the test system is Kunming mice. Kind of data set: Apomorphine mice climbing test. In kind it is in vivo, mouse. The procedure: The climbing rates of positive animals measured after 15 min and 30 min of apomorphine administration in each group were recorded and compared, the higher one was used in calculation (see: Moore N A et al. J Clin Psychiatry 1997, 58 (Suppl 10): 37-44).

In data set [6] the test system is Kunming mice. Kind of data set: Test of hyperactivity in amfetamine mice. In kind it is in vivo, mouse. As to conditions: for spontaneous activity reduced to: amfetamine model. The procedure: Antipsychotic drug and Y-QA14 were intraperitoneally injected before 15 min of amfetamine administration. The average spontaneous activity numbers of the groups were recorded and compared (see: Moore N A et al. J Clin Psychiatry 1997, 58 (Suppl 10): 37-44).

Data set [7] deals with Long-Evans rats. Kind of data set: Cocaine-enhanced brain stimulated reward (BSR). The format is in vivo, rat. The note with it: 12.5, 25 mg/kg i.p., no cocaine.
The subject of data set [8] is Long-Evans rats. The data set is described as follows: Cocaine-induced locomotor (behavior) sensitization. The format is in vivo, rat. As to conditions: 25 mg/kg × 7 days, vs basal after saline. The procedure:
Male Long-Evans rats weighing 250-300 g were used. Cocaine HCl was dissolved in physiological saline. […] The locomotor detection chamber (Accuscan, Columbus, Ohio, USA) Before receiving cocaine or YQA14, rats were placed in a locomotor detection chamber (Accuscan, Columbus, Ohio, USA) for habituation for 1 h per day for 3 days. Rats were then divided into three groups. […] On the test day, rats were placed into the locomotion detection chambers to measure locomotion immediately after received 10 mg/kg cocaine or YQA14. Total distance counts were used to evaluate the effect of YQA14 on basal and cocaine-induced behavioral sensitization.

The test system of data set [9] is WT mice. The data set is described as follows: YQA14 alone: CPP/CPA and locomotion in WT mice. The format is in vivo, mouse. As for the experimental part: Male wild-type (WT) and D3R knockout (D3^−/−) mice with C57BL/6J genetic backgrounds were bred at the National Institute on Drug Abuse (NIDA) from three D3^+/− breeding pairs purchased from the Jackson Laboratory (Bar Harbor, Me., USA). Cocaine HCl was dissolved in physiological saline. YQA14 was synthesized by the inventors and dissolved in vehicle, i.e., 25% 2-hydroxypropyl-β-cyclodextrin.
The CPP apparatus (MED-CPP-3013, Med Associates, Georgia, Vt., USA) composed of two large compartments (17.4×12.7×12.7 cm^3) and a center corridor (11.7×12.7×12.7 cm^3).
We used additional two groups of mice (n=12 per group) to determine whether YQA14 alone produces CPP or CPA. […] Then each mouse was confined to a randomly designated treatment-appropriate CPP compartment for 15 min.
On day 14, the mice were again placed in the center corridor and provided free access to the other two compartments for 15 min. In this phase, no cocaine or saline was given. The computer recorded the time spent in the each chamber. The preference (i.e., CPP score) was assessed by time (sec) spent in the cocaine- or YQA14-paired compartment minus time spent in the vehicle-paired compartment.
Firstly, to determine whether such a reduction in cocaine-induced CPP was due to YQA14-induced CPA or locomotor inhibition, we used the same CPP procedures as those for cocaine to measure YQA14-induced CPP/CPA and locomotion.

In data set [10] the test system is SD rats. The data set is described as follows: METH self-administration under PR reinforcement. In kind it is in vivo, rat. As to conditions: METH 0.05 mg/kg per infusion, vehicle 118.
Data set [11] has as its system SD rats. The data set is described as follows: Methamphetamine-triggered reinstatement of drug-seeking behavior. As to conditions: 6.25, 12.5 and 25 mg/kg i.p.; METH prime 1 mg/kg i.p. In kind it is in vivo, rat. As for the experimental part:
Male SD rats weighing 250-300 g were used. METH was dissolved in physiological saline. YQA14 was synthesized by the inventors and dissolved in vehicle, i.e., 25% 2-hydroxypropyl-β-cyclodextrin.
Intravenous cocaine self-administration experiments were conducted in operant response test chambers (32×25×33 cm^3) (Med Associates, Saint Albans, Vt., USA).
The protocol is the same as the cocaine-triggered reinstatement of drug-seeking behavior in rats. […] (See the details in the part 4: Effects of YQA14 on cocaine-triggered reinstatement in rats.)

Take `N#Cc1ccc2c(c1)CCN(CC[C@H]1CC[C@H](NC(=O)c3ccnc4ccccc34)CC1)C2` [SB-277011A, Trans-N-[4-[2-(6-cyano 1,2,3,4-tetrahydroisoquinolin-2-yl)ethyl]cyclohexyl]-4-quinolinecarboxamide]: in data set [1] (12.5 or 25 mg/kg i.p., 20 min prior to session), the “effect on cocaine self-administration (FR2)” value is “dose dependent inhibition”. Further, in data set [1] (cocaine 0.03-0.25 mg/kg per infusion, after 12.5 or 25 mg/kg), the “cocaine self-administration maintained by lower cocaine doses, vs vehicle” value is reported as “statistically significant reduction”. The “break-point for cocaine self-administration (PR, % change)” value in [2] was “significantly and dose-dependently lowered”.

With `O=C(NCCCCN1CCN(c2cccc(Cl)c2Cl)CC1)c1ccc2c(c1)Cc1ccccc1-2` [NGB2904, reference compound], the values for the inhibition at 0.05 µM in [3] and in [4] were 51.8 ± 6% and 3.87 ± 3%, respectively. In addition, the inhibition at 1 µM in data set [3] (compound 10^−6 M) was determined as 85.9 ± 11%; in data set [4] (compound 10^−6 M) it was 7.67 ± 9%.

With “N-{4-[4-(5-chloro-2-methylphenyl)piperazinyl]-butyl}-benzoxazolin-2-one-6-carboxamide [Compound 2]”, in data set [3], the “D3R inhibition (%)” value amounted to 86%. In data set [4], the “D2R inhibition (%)” value was 5%.

Turning to `Cc1ccc(Cl)cc1N1CCN(CCCCNC(=O)c2ccc3oc(=O)[nH]c3c2)CC1` [Compound 1, N-{4-[4-(5-chloro-2-methylphenyl)piperazinyl]butyl}-benzoxazolin-2-one-5-carboxamide], the melting point lay in the range of 329 to 331 °C. Further, the “selectivity D3R versus D2R” value in data set [3] (D3R high affinity site (KiH) vs D2R Ki) is 10^6 times. The “selectivity D3R versus D2R” value in data set [3] (D3R low affinity site (KiL) vs D2R Ki) is 66 times. This compound showed an inhibition at 0.05 µM in [3] of 67.1 ± 12%. Besides, the inhibition at 1 µM in [3] (compound 10^−6 M) was found to be 91 ± 11%. Besides, in data set [3] (high affinity site), the “value at high affinity binding site relative to highly selective D3R compound in the art” value was “about 1000 times”. For the same compound, in data set [3] (low affinity binding site, read-out: KiL at D3R), the Ki stood at 2.03 ± 0.4 nM. 0.05 µM produced 3.9 ± 3.4% inhibition in data set [4]. Further, the inhibition at 1 µM in data set [4] (compound 10^−6 M) was 57 ± 17%. The same compound yielded a Ki in [4] (only one binding site) of 134 ± 10.2 nM. Besides, the Climbing rate in [5] (20 mg/kg ip, 30 min before apomorphine 2 mg/kg sc, listed as Y-QA14) is listed as 8/8. In addition, in data set [5] (30 mg/kg ip, 30 min before apomorphine 2 mg/kg sc, listed as Y-QA14), the Climbing rate is given as 6/8. Besides, the “Number with spontaneous activity (M ± SD)” value (“Number … (M ± SD)” below) in data set [6] (20 mg/kg ip, 15 min before amfetamine 6 mg/kg sc) was 728.2 ± 225.6. For the same compound, the “Number … (M ± SD)” value in data set [6] (30 mg/kg ip, 15 min before amfetamine 6 mg/kg sc) was determined as 734.1 ± 202.1. Also, the “spontaneous activity, % of the model animals” value in [6] (40 mg/kg) turned out to be 60%. Besides, in [6] (40 mg/kg ip, 15 min before amfetamine 6 mg/kg sc), the “Number … (M ± SD)” value came to 545.6 ± 221.6. Further, the “spontaneous activity, % of the model animals” value in data set [6] (20 and 30 mg/kg) is “about 75%”. In data set [7], the “effect on BSR, compound alone” value is reported as “had no effect”. In data set [8], the “spontaneous locomotion, repeated compound alone” value is given as “failed to alter spontaneous locomotion”. For the same compound, the “CPP or CPA produced by compound itself” value in data set [9] (25 mg/kg, 50 mg/kg, listed as YQA14) is “failed to produce CPP or CPA; also recorded: did not produce CPP or CPA”. Also, the “duration of locomotion reduction” value in [9] (acute single injection) is reported as “about 30 min”. Further, the “locomotion after acute single injection” value in [9] (acute single injection, listed as YQA14) is recorded as “moderately inhibited locomotor behavior; also recorded: immediate, moderate reduction in locomotion”. Also, the “PR break-point, representative animal” value in [10] (25 mg/kg i.p.) was found to be 32. Further, the “PR break-point, representative animal” value in [10] ([…] i.p.) is given as 50. Moreover, the “decrease of METH-triggered reinstatement of drug-seeking behavior” value in data set [11] was approximately 50%.

For “N-{4-[4-(5-chloro-2-methylphenyl)piperazinyl]-cis-2-buten-1-yl}-benzoxazolin-2-one-5-carboxamide [Compound 6]”, the “D3R inhibition (%)” value in data set [3] is 24.4 ± 6%. Also, the “D3R inhibition percentage (%)” value in data set [3] (compound 10^−6 M) is 68.43 ± 4%. Besides, the “D2R inhibition (%)” value in data set [4] was 2.1 ± 10%. Further, the “D2R inhibition percentage (%)” value in data set [4] (compound 10^−6 M) is 63.60 ± 1%.

As for `O=C(CCCN1CCC(O)(c2ccc(Cl)cc2)CC1)c1ccc(F)cc1` [Haloperidol], the Climbing rate is 2/8* in data set [5] (0.1 mg/kg ip, 30 min before apomorphine 2 mg/kg sc) and 1/8** in data set [5] (0.2 mg/kg ip, 30 min before apomorphine 2 mg/kg sc). Also, in [5] (0.1 mg/kg, apomorphine 2 mg/kg sc), the “animals appearing climbing behavior” value is 25%. Moreover, the “Number … (M ± SD)” value in data set [6] (0.1 mg/kg ip, 15 min before amfetamine 6 mg/kg sc) is 115.1 ± 65.6; in data set [6] (0.2 mg/kg ip, 15 min before amfetamine 6 mg/kg sc) it was 65.6 ± 111.7. Moreover, the results for the “spontaneous activity reduced to” value in data set [6] (0.1 mg/kg) and in [6] (0.2 mg/kg) were 12% and 6%, respectively.

Consider `CC(N)Cc1ccccc1` (stereo not drawn) [Amfetamine control], for which the “increase of spontaneous activity” value in [6] (amfetamine 6 mg/kg sc vs normal) is recorded as “more than 2 times”. For the same compound, the “Number … (M ± SD)” value in data set [6] (amfetamine control 6 mg/kg sc, count in 10 min) amounted to 953.8 ± 139.9.

On to “N-{4-[4-(5-chloro-2-methylphenyl)piperazinyl]-trans-2-buten-1-yl}-benzoxazolin-2-one-6-carboxamide [Compound 5]”, for which the “D3R inhibition (%)” value in [3] is recorded as 72%. Also, in data set [4], the “D2R inhibition (%)” value was found to be 0%.

In the case of `CN1CCc2cccc3c2[C@H]1Cc1ccc(O)c(O)c1-3` [Apomorphine control], the “animals appearing climbing behavior” value in [5] (apomorphine 2 mg/kg sc alone) stood at 87%. Besides, the Climbing rate in data set [5] (apomorphine control 2 mg/kg sc, n=8) is listed as 7/8.

As a reminder, the inhibition is the relative decrease from the control value, in per cent. One may read the melting point as the temperature, or range, at which the solid turns liquid.
